From patent US10800792B2, “Inhibitors of Bruton's tyrosine kinase and method of their use” (JANSSEN PHARMACEUTICA NV, priority 2015, dated 2020)

Target: unphosphorylated-BTK kinase domain (UP-BTK), GST-tagged human BTK (389-659aa) (Homo sapiens (Human), UniProt Q06187)
Assay: BTK kinase Lanthascreen binding assay
Conditions: Lanthascreen tracer competition, 60 minutes incubation, pIC50 = negative log of the IC50 in molar; for IC50: read-out: BTK_I_binding pIC50 (converted)
Method in brief: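 Compound binding to the unphosphorylated kinase domain was monitored by displacement of a fluorescently labelled tracer in a Lanthascreen format. Potency is given as pIC50, the negative log of the molar IC50.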

unphosphorylated-BTK kinase domain (UP-BTK), GST-tagged human BTK (389-659aa), sequence (Q06187 389-659): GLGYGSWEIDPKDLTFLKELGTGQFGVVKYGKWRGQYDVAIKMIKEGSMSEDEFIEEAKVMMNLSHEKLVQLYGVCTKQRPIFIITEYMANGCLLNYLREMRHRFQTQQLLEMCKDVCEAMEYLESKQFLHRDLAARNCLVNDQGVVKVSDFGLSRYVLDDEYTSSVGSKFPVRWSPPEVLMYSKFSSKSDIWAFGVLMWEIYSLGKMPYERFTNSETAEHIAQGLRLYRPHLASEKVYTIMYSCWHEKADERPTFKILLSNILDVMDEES

Structure (SMILES) | BTK_I_binding pIC50 | IC50
CN(C)C/C=C/C(=O)N1CC[C@@H](NC(=O)c2sc3nccc4c3c2NC(=O)N4c2ccc(Oc3ccccc3)c(Cl)c2)C1 [Example 703, (R,E)-5-(3-Chloro-4-phenoxyphenyl)-N-(1-(4-(dimethylamino)but-2-enoyl)pyrrolidin-3-yl)-4-oxo-4,5-dihydro-3H-1-thia-3,5,8-triazaacenaphthylene-2-carboxamide] | 7.8 | 
C=CC(=O)N1CCC[C@@H](NC(=O)c2sc3nccc4c3c2NC(=O)N4c2ccc(OC3CCC3)nc2C)C1 [Example 704, (R)—N-(1-Acryloylpiperidin-3-yl)-5-(6-cyclobutoxy-2-methylpyridin-3-yl)-4-oxo-4,5-dihydro-3H-1-thia-3,5,8-triazaacenaphthylene-2-carboxamide] | 6.6 | 
C=CC(=O)N1CC[C@@H](NC(=O)c2sc3nccc4c3c2NC(=O)N4c2cccc(C(C)C)c2)C1 [Example 705, (R)—N-(1-Acryloylpyrrolidin-3-yl)-5-(3-isopropylphenyl)-4-oxo-4,5-dihydro-3H-1-thia-3,5,8-triazaacenaphthylene-2-carboxamide] | 6.7 | 
C=CC(=O)N1CCC[C@@H](NC(=O)c2sc3nccc4c3c2NC(=O)N4c2cccc(C3CCOCC3)c2)C1 [Example 708, (R)—N-(1-Acryloylpiperidin-3-yl)-4-oxo-5-(3-(tetrahydro-2H-pyran-4-yl)phenyl)-4,5-dihydro-3H-1-thia-3,5,8-triazaacenaphthylene-2-carboxamide] | 6.5 | 
Cc1nc(Oc2ccccc2)ccc1N1C(=O)Nc2c(C(=O)N[C@@H]3CCCNC3)sc3nccc1c23 [Example 711, (R)-5-(2-methyl-6-phenoxypyridin-3-yl)-4-oxo-N-(piperidin-3-yl)-4,5-dihydro-3H-1-thia-3,5,8-triazaacenaphthylene-2-carboxamide] | 6.6 | 
C=CC(=O)N1C[C@@H](O)[C@@H](NC(=O)c2sc3nccc4c3c2NC(=O)N4c2ccnc(-c3ccccc3)c2)C1 [Example 718, N-((3S,4R)-1-Acryloyl-4-hydroxypyrrolidin-3-yl)-4-oxo-5-(2-phenylpyridin-4-yl)-4,5-dihydro-3H-1-thia-3,5,8-triazaacenaphthylene-2-carboxamide] | 6.3 | 
O=C(N[C@@H]1CCCNC1)c1sc2nccc3c2c1NC(=O)N3c1ncc(Oc2ccccc2)cn1 [Example 719, (R)-4-Oxo-5-(5-phenoxypyrimidin-2-yl)-N-(piperidin-3-yl)-4,5-dihydro-3H-1-thia-3,5,8-triazaacenaphthylene-2-carboxamide] |  | 501 nM
O=C(N[C@@H]1CCCNC1)c1sc2nccc3c2c1NC(=O)N3c1ccnc(C2CCCC2)c1 [Example 720, (R)-5-(2-Cyclopentylpyridin-4-yl)-4-oxo-N-(piperidin-3-yl)-4,5-dihydro-3H-1-thia-3,5,8-triazaacenaphthylene-2-carboxamide] | 6.2 | 
O=C(N[C@@H]1CCCNC1)c1sc2nccc3c2c1NC(=O)N3c1cc(-c2ccccc2)ncn1 [Example 723, (R)-4-Oxo-5-(6-phenylpyrimidin-4-yl)-N-(piperidin-3-yl)-4,5-dihydro-3H-1-thia-3,5,8-triazaacenaphthylene-2-carboxamide] |  | 794 nM
CC(C)c1cc(N2C(=O)Nc3c(C(=O)N[C@@H]4CCCNC4)sc4nccc2c34)ccn1 [Example 727, (R)-5-(2-Isopropylpyridin-4-yl)-4-oxo-N-(piperidin-3-yl)-4,5-dihydro-3H-1-thia-3,5,8-triazaacenaphthylene-2-carboxamide] | <6 | 
Cc1cc(OCCOC(C)C)ccc1N1C(=O)Nc2c(C(=O)N[C@@H]3CCCNC3)sc3nccc1c23 [Example 730, (R)-5-(4-(2-Isopropoxyethoxy)-2-methylphenyl)-4-oxo-N-(piperidin-3-yl)-4,5-dihydro-3H-1-thia-3,5,8-triazaacenaphthylene-2-carboxamide] |  | > 1000 nM
O=C(N[C@@H]1CCCNC1)c1sc2nccc3c2c1NC(=O)N3c1ccnc(C2CCCCC2)c1 [Example 731, (R)-5-(2-Cyclohexylpyridin-4-yl)-4-oxo-N-(piperidin-3-yl)-4,5-dihydro-3H-1-thia-3,5,8-triazaacenaphthylene-2-carboxamide] | <6 | 
C=CC(=O)N1CCC[C@@H](NC(=O)c2sc3nccc4c3c2NC(=O)N4c2ccc(OC(C)C)nc2C)C1 [Example 732, (R)—N-(1-Acryloylpiperidin-3-yl)-5-(6-isopropoxy-2-methylpyridin-3-yl)-4-oxo-4,5-dihydro-3H-1-thia-3,5,8-triazaacenaphthylene-2-carboxamide] | <6 | 
O=C(N[C@@H]1CCCNC1)c1sc2nccc3c2c1NC(=O)N3c1cccc(C2CCOCC2)c1 [Example 738, (R)-4-Oxo-N-(piperidin-3-yl)-5-(3-(tetrahydro-2H-pyran-4-yl)phenyl)-4,5-dihydro-3H-1-thia-3,5,8-triazaacenaphthylene-2-carboxamide] | <6 | 
CC(C)(C)OC(=O)N1CCC[C@@H](NC(=O)c2sc3nccc4c3c2NC(=O)N4c2cccc(C3CCOCC3)c2)C1 [Example 739, (R)-tert-Butyl 3-(4-oxo-5-(3-(tetrahydro-2H-pyran-4-yl)phenyl)-4,5-dihydro-3H-1-thia-3,5,8-triazaacenaphthylene-2-carboxamido)piperidine-1-carboxylate] | <6 | 
O=C(N[C@@H]1CCNC1)c1sc2nccc3c2c1NC(=O)N3c1ccc(Oc2ccccc2)nc1 [Example 741, (R)-4-Oxo-5-(6-phenoxypyridin-3-yl)-N-(pyrrolidin-3-yl)-4,5-dihydro-3H-1-thia-3,5,8-triazaacenaphthylene-2-carboxamide] | 5.9 | 

Now from value to compound:

BTK_I_binding pIC50 | IC50 | Structure (SMILES)
7.2 |  | C=CC(=O)N1CCC[C@@H](NC(=O)c2sc3nccc4c3c2NC(=O)N4c2ccnc(-c3cccnc3)c2)C1 [Example 701, (R)-5-([2,3′-Bipyridin]-4-yl)-N-(1-acryloylpiperidin-3-yl)-4-oxo-4,5-dihydro-3H-1-thia-3,5,8-triazaacenaphthylene-2-carboxamide]
7.7 |  | O=C(N[C@@H]1CCCNC1)c1sc2nccc3c2c1NC(=O)N3c1cccc(-c2cccc(F)c2F)c1 [Example 706, (R)-5-(2′,3′-Difluoro-[1,1′-biphenyl]-3-yl)-4-oxo-N-(piperidin-3-yl)-4,5-dihydro-3H-1-thia-3,5,8-triazaacenaphthylene-2-carboxamide]
6.7 |  | C=CC(=O)N1CCC[C@@H](NC(=O)c2sc3nccc4c3c2NC(=O)N4c2ccnc(-c3ccccn3)c2)C1 [Example 709, (R)-5-([2,2′-Bipyridin]-4-yl)-N-(1-acryloylpiperidin-3-yl)-4-oxo-4,5-dihydro-3H-1-thia-3,5,8-triazaacenaphthylene-2-carboxamide]
7.4 |  | CN1CCC[C@@H](NC(=O)c2sc3nccc4c3c2NC(=O)N4c2cccc(-c3cccc(F)c3F)c2)C1 [Example 710, (R)-5-(2′,3′-Difluoro-[1,1′-biphenyl]-3-yl)-N-(1-methylpiperidin-3-yl)-4-oxo-4,5-dihydro-3H-1-thia-3,5,8-triazaacenaphthylene-2-carboxamide]
6.5 |  | CNCC(=O)N1CCC[C@@H](NC(=O)c2sc3nccc4c3c2NC(=O)N4c2ccnc(-c3ccccc3)c2)C1 [Example 714, (R)—N-(1-(Methylglycyl)piperidin-3-yl)-4-oxo-5-(2-phenylpyridin-4-yl)-4,5-dihydro-3H-1-thia-3,5,8-triazaacenaphthylene-2-carboxamide]
6.2 |  | CC(C)Cc1cccc(N2C(=O)Nc3c(C(=O)N[C@@H]4CCCNC4)sc4nccc2c34)c1 [Example 721, (R)-5-(3-Isobutylphenyl)-4-oxo-N-(piperidin-3-yl)-4,5-dihydro-3H-1-thia-3,5,8-triazaacenaphthylene-2-carboxamide]
6.1 |  | Cc1ccc(-c2ccccc2)cc1N1C(=O)Nc2c(C(=O)N[C@@H]3CCCNC3)sc3nccc1c23 [Example 725, (R)-5-(4-Methyl-[1,1′-biphenyl]-3-yl)-4-oxo-N-(piperidin-3-yl)-4,5-dihydro-3H-1-thia-3,5,8-triazaacenaphthylene-2-carboxamide]
<6 |  | Cc1cnc(-c2ccccc2)cc1N1C(=O)Nc2c(C(=O)N[C@@H]3CCCNC3)sc3nccc1c23 [Example 729, (R)-5-(5-Methyl-2-phenylpyridin-4-yl)-4-oxo-N-(piperidin-3-yl)-4,5-dihydro-3H-1-thia-3,5,8-triazaacenaphthylene-2-carboxamide]
<6 |  | Cc1c(N2C(=O)Nc3c(C(=O)N[C@@H]4CCCNC4)sc4nccc2c34)ccnc1-c1ccccc1 [Example 733, (R)-5-(3-Methyl-2-phenylpyridin-4-yl)-4-oxo-N-(piperidin-3-yl)-4,5-dihydro-3H-1-thia-3,5,8-triazaacenaphthylene-2-carboxamide]
<6 |  | C=CC(=O)N1CCC[C@@H](NC(=O)c2sc3nccc4c3c2NC(=O)N4c2cc(C)nc(-c3ccccc3)c2)C1 [Example 734, (R)—N-(1-Acryloylpiperidin-3-yl)-5-(2-methyl-6-phenylpyridin-4-yl)-4-oxo-4,5-dihydro-3H-1-thia-3,5,8-triazaacenaphthylene-2-carboxamide]
 | > 1000 nM | Cc1cc(N2C(=O)Nc3c(C(=O)N[C@@H]4CCCNC4)sc4nccc2c34)cc(-c2ccccc2)n1 [Example 735, (R)-5-(2-Methyl-6-phenylpyridin-4-yl)-4-oxo-N-(piperidin-3-yl)-4,5-dihydro-3H-1-thia-3,5,8-triazaacenaphthylene-2-carboxamide]
<6 |  | O=C(N[C@@H]1CCCNC1)c1sc2nccc3c2c1NC(=O)N3c1cnnc(-c2ccccc2)c1 [Example 740, (R)-4-Oxo-5-(6-phenylpyridazin-4-yl)-N-(piperidin-3-yl)-4,5-dihydro-3H-1-thia-3,5,8-triazaacenaphthylene-2-carboxamide]
